In brackets after ≈: the same amount, converted by molar mass. Where a SMILES comes first, the peptide text is derived from it. [ ]: non-standard residue; d: D form. Met(O) = CS(=O)CC[C@H](N)C(=O)O; Dab = NCC[C@H](N)C(=O)O
Legend:
[1] = system: KB; assay: Cytotoxicity against human KB cells assessed as reduction in cell viability; type: functional, cell-based
[2] = system: DU-145; assay: Cytotoxicity against human DU-145 cells assessed as inhibition of cell growth incubated for 72 hrs by XTT assay; type: functional, cell-based; details: DU-145, 72 h
[3] = Cytotoxicity against mouse DLA cell assessed as reduction in cell viability incubated for 3 hrs by tryphan blue dye based assay; type: toxicity; details: DLA cells
[4] = Cytotoxicity against mouse EAC cell assessed as reduction in cell viability incubated for 3 hrs by tryphan blue dye based assay; type: toxicity; details: EAC (Ehrlich) cells
[5] = system: KB; assay: Cytotoxicity against human KB cells assessed as inhibition of cell growth at 6.25 to 100 uM incubated for 72 hrs by MTT assay; type: functional; parameters: scale not given: the % may be the effect or the level left; details: dose 6.25-100 µM
[6] = system: HL-60; assay: Cytotoxicity against human HL-60 cells assessed as inhibition of cell growth at 6.25 to 100 uM incubated for 72 hrs by MTT assay; type: functional; parameters: scale not given: the % may be the effect or the level left; details: dose 6.25-100 µM
[7] = system: Pseudomonas aeruginosa; assay: Antibacterial activity against Pseudomonas aeruginosa assessed as inhibition of bacterial growth incubated for 18 hrs by disc diffusion method; type: functional
[8] = system: Klebsiella pneumoniae; assay: Antibacterial activity against Klebsiella pneumoniae assessed as inhibition of bacterial growth incubated for 18 hrs by disc diffusion method; type: functional
[9] = system: Trichophyton mentagrophytes; assay: Antifungal activity against Trichophyton mentagrophytes assessed as inhibition of fungal growth incubated for 48 hrs by serial plate dilution method; type: functional
[10] = system: Microsporum audouinii; assay: Antifungal activity against Microsporum audouinii assessed as inhibition of fungal growth incubated for 48 hrs by serial plate dilution method; type: functional
[11] = system: KB; assay: Cytotoxicity against human KB cells assessed as reduction in cell viability incubated for 3 days; type: functional, cell-based; details: 72 h
[12] = system: Pseudomonas aeruginosa; assay: Antibacterial activity against Pseudomonas aeruginosa MUMC 266 assessed as inhibition of bacterial growth incubated for 18 hrs by disk diffusion method; type: functional
[13] = system: Escherichia coli; assay: Antibacterial activity against Escherichia coli MUMC 106 assessed as inhibition of bacterial growth incubated for 18 hrs by disk diffusion method; type: functional
[14] = system: Candida albicans; assay: Antifungal activity against Candida albicans MUMC 29 assessed as inhibition of fungal growth incubated for 48 hrs by disk diffusion method; type: functional
[15] = system: Candida albicans; assay: Antifungal activity against Candida albicans MUMC 29 assessed as increase in inhibition of fungal growth incubated for 48 hrs by disk diffusion method relative to griseofulvin; type: functional; parameters: scale not given: the % may be the effect or the level left
[16] = system: Pseudomonas aeruginosa; assay: Antibacterial activity against Pseudomonas aeruginosa MUMC 266 assessed as increase in inhibition of bacterial growth incubated for 18 hrs by disk diffusion method relative to ciprofloxacin; type: functional; parameters: scale not given: the % may be the effect or the level left
[17] = system: Escherichia coli; assay: Antibacterial activity against Escherichia coli MUMC 106 assessed as increase in inhibition of bacterial growth incubated for 18 hrs by disk diffusion method relative to ciprofloxacin; type: functional; parameters: scale not given: the % may be the effect or the level left
[18] = Cytotoxicity against mouse DLA cell assessed as reduction in cell viability; type: toxicity, cell-based; details: DLA cells
[19] = Cytotoxicity against mouse EAC cell assessed as reduction in cell viability; type: toxicity, cell-based; details: EAC (Ehrlich) cells
[20] = system: Trichophyton mentagrophytes; assay: Antimicrobial activity against Trichophyton mentagrophytes MUMC 665 assessed as inhibition of microbial growth by disk diffusion method; type: functional
[21] = system: Microsporum audouinii; assay: Antimicrobial activity against Microsporum audouinii MUMC 545 assessed as inhibition of microbial growth by disk diffusion method; type: functional

**Q.** For CC(C)C[C@@H]1NC(=O)CNC(=O)[C@@H]2CCCN2C(=O)[C@H]([C@@H](C)O)NC(=O)[C@H](C(C)C)NC(=O)[C@H](C)NC(=O)[C@H](CC(N)=O)NC1=O, which IC50 [1] is on record?
**A.** Its IC50 is 0.97 µM.

**Q.** Which results are given for COc1cccc2c1C(=O)c1c(O)c3c(c(O)c1C2=O)C[C@@](O)(C(=O)CO)C[C@@H]3O[C@H]1C[C@H](N)[C@H](O)[C@H](C)O1 [DOXORUBICIN]?
**A.** IC50 [1]: 0.02 µM; IC50 [2]: 1.1 µM

**Q.** With O=c1[nH]cc(F)c(=O)[nH]1 [FLUOROURACIL] as the compound, how does the CC50 at 3 h [3] read?
**A.** Its CC50 at 3 h is 37.4 µM.

**Q.** And the CC50 at 3 h [4]?
**A.** The CC50 at 3 h was 37.4 µM.

**Q.** What does the source list for CC[C@H](C)[C@@H]1NC(=O)[C@@H]2CCCN2C(=O)CNC(=O)[C@H](C)NC(=O)[C@H](Cc2ccc(O)cc2)NC1=O (cyclo(AGPIY))?
**A.** Activity [5]: <30%; Activity [6]: <30%

**Q.** Which results are given for CC(C)C[C@@H]1NC(=O)CNC(=O)[C@@H]2CCCN2C(=O)[C@H](CC(N)=O)NC(=O)[C@H](C)NC(=O)[C@H](Cc2ccc(O)cc2)NC(=O)[C@@H]2CCCN2C1=O [CYCLOMONTANIN D] (cyclo(ANPGLPY))?
**A.** MIC [7]: 6 µg/mL (≈ 8.42 µM); MIC [8]: 6 µg/mL (≈ 8.42 µM); MIC [9]: 6 µg/mL (≈ 8.42 µM); MIC [10]: 6 µg/mL (≈ 8.42 µM)

**Q.** Which IC50 [1] does the source give for CC[C@H](C)[C@@H]1NC(=O)[C@@H]2CCCN2C(=O)[C@H](CC(C)C)NC(=O)[C@H](CC[S+](C)[O-])NC(=O)CNC(=O)[C@H]([C@@H](C)O)NC(=O)[C@H](CCC(N)=O)NC(=O)[C@@H]2CCCN2C1=O (stereo partly drawn) (cyclo(G[Met(O)]LPIPQT)) here?
**A.** Its IC50 is 45 µM.

**Q.** With CC(C)C[C@@H]1NC(=O)[C@H](C(C)C)NC(=O)[C@H](C(C)C)NC(=O)CNC(=O)[C@H](C)NC(=O)CNC(=O)[C@@H]2CCCN2C1=O (cyclo(AGVVLPG)) as the compound, how does the IC50 [1] read?
**A.** Its IC50 is 0.73 µM.

**Q.** Which IC50 [1] does the source give for CC[C@H](C)[C@@H]1NC(=O)[C@@H]2CCCN2C(=O)[C@H](CC(C)C)NC(=O)[C@H](CCSC)NC(=O)CNC(=O)[C@H]([C@@H](C)O)NC(=O)[C@H](CCC(N)=O)NC(=O)[C@@H]2CCCN2C1=O (cyclo(GMLPIPQT)) here?
**A.** Its IC50 is 0.6 µM.

**Q.** With CC[C@H](C)[C@@H]1NC(=O)[C@H](C)NC(=O)[C@H](C(C)C)NC(=O)[C@H]([C@@H](C)O)NC(=O)CNC(=O)[C@H](Cc2ccc(O)cc2)NC(=O)[C@H](CO)NC(=O)[C@H](CCN)NC(=O)[C@@H]2CCCN2C1=O (cyclo(AIP[Dab]SYGTV)) as the compound, how does the IC50 [2] read?
**A.** Its IC50 is 27.3 µM.

**Q.** With CC[C@H](C)[C@@H]1NC(=O)CNC(=O)[C@H](CCSC)NC(=O)CNC(=O)[C@@H]2CCCN2C(=O)[C@H](CCSC)NC(=O)[C@@H]2CCCN2C(=O)[C@H](CC(C)C)NC(=O)[C@H](Cc2ccc(O)cc2)NC1=O (cyclo(GIYLPMPGM)) as the compound, how does the IC50 [11] read?
**A.** Its IC50 is 0.06 µM.

**Q.** With CC(C)C[C@@H]1NC(=O)CNC(=O)[C@H](Cc2ccccc2)NC(=O)[C@H](Cc2ccc(O)cc2)NC(=O)[C@@H]2CCCN2C(=O)CNC1=O [Cherimolacyclopeptide E] (cyclo(FGLGPY)) as the compound, how does the IC50 [11] read?
**A.** Its IC50 is 0.017 µM.

**Q.** What about the MIC [12] of the same compound?
**A.** Its MIC is 6 µg/mL (≈ 9.45 µM).

**Q.** And the MIC [13]?
**A.** The MIC was 12.5 µg/mL (≈ 19.7 µM).

**Q.** And the MIC [14]?
**A.** The MIC was 6 µg/mL (≈ 9.45 µM).

**Q.** What about the CC50 at 3 h [3] of the same compound?
**A.** Its CC50 at 3 h is 2.76 µM.

**Q.** What about the CC50 at 3 h [4] of the same compound?
**A.** The CC50 at 3 h was 4.96 µM.

**Q.** And the Activity [15]?
**A.** The Activity was 25%.

**Q.** And the Activity [16]?
**A.** The Activity was 12%.

**Q.** And the Activity [17]?
**A.** The Activity was 12%.

**Q.** Which results are given for CC(C)C[C@@H]1NC(=O)[C@H](Cc2c[nH]c3ccccc23)NC(=O)[C@H](C)NC(=O)[C@H](CC(N)=O)NC(=O)[C@@H]2CCCN2C(=O)[C@H]([C@@H](C)O)NC(=O)CNC1=O (cyclo(AWLGTPN))?
**A.** CC50 [18]: 11.6 µM; CC50 [19]: 14.1 µM; MIC [20]: 6 µg/mL; MIC [21]: 6 µg/mL

**Q.** With CC[C@H](C)[C@@H]1NC(=O)[C@@H]2CCCN2C(=O)[C@H](C(C)C)NC(=O)[C@H](C)NC(=O)CNC(=O)[C@@H]2CCCN2C(=O)[C@H](C)NC(=O)[C@H](Cc2ccc(O)cc2)NC1=O (cyclo(APGAVPIY)) as the compound, how does the IC50 [1] read?
**A.** Its IC50 is 0.52 µM.

**Q.** What about the IC50 [11] of the same compound?
**A.** The IC50 was 0.52 µM.

**Q.** What about the CC50 at 3 h [3] of the same compound?
**A.** Its CC50 at 3 h is 6.72 µM.

**Q.** What about the CC50 at 3 h [4] of the same compound?
**A.** The CC50 at 3 h was 11.9 µM.

**Q.** Which results are given for CC[C@H](C)[C@@H]1NC(=O)CNC(=O)[C@H](CCSC)NC(=O)CNC(=O)[C@@H]2CCCN2C(=O)[C@H](CC(C)C)NC(=O)[C@H](Cc2ccc(O)cc2)NC1=O (cyclo(GIYLPGM))?
**A.** IC50 [1]: 16.5 µM; IC50 [11]: 16.5 µM

**Q.** Which IC50 [2] does the source give for CC(C)C[C@@H]1NC(=O)CNC(=O)[C@@H]2CCCN2C(=O)[C@H]([C@@H](C)O)NC(=O)[C@H](C(C)C)NC(=O)[C@H](C)NC(=O)[C@H](CO)NC1=O here?
**A.** The IC50 was 54.9 µM.

**Q.** For CC(C)C[C@@H]1NC(=O)[C@H](Cc2ccc(O)cc2)NC(=O)[C@@H]2CCCN2C(=O)[C@@H]2CCCN2C(=O)[C@H](C(C)C)NC(=O)CNC(=O)[C@@H]2CCCN2C1=O (cyclo(GVPPYLP)), which Activity [5] is on record?
**A.** The Activity was less than 30%.

**Q.** What about the Activity [6] of the same compound?
**A.** The Activity was less than 30%.

Source: ChEMBL document CHEMBL5226294, “Natural bioeffective cyclooligopeptides from plant seeds of Annona genus” (Eur J Med Chem, 2021)
